Reference: publication PMC8989696, “Characterization of furathiocarb metabolism in in-vitro human liver microsomes and recombinant cytochrome P450 enzymes” (Toxicology Reports, 2022)

Assays:
CYP1A2 = target: T1, CYP1A2 (Homo sapiens, UniProt P05177); test: biochemical; type: in vitro ADME
T1 construct: from tissue; host or cells: pooled human liver microsomes (n = 10 donors)
T1 sequence (P05177 1-516): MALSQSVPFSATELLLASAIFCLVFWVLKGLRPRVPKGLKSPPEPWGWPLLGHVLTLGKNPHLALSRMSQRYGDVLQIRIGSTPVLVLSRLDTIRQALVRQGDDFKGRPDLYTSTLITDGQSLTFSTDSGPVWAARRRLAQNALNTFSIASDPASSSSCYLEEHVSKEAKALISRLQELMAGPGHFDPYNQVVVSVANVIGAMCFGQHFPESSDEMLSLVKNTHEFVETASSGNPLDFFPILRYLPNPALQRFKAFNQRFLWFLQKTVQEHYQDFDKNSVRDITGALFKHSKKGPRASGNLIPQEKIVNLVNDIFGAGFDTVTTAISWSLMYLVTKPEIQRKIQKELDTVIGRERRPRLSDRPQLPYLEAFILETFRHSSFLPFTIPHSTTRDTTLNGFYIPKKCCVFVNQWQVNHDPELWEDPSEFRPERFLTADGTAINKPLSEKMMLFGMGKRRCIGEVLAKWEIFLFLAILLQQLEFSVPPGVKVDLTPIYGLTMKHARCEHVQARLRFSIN
Method: (§1) N-in-one (“cocktail”) assay for measuring major CYP activities simultaneously, [55], [56] was employed to investigate human CYP-furathiocarb inhibitory interactions in pooled human hepatic microsomes. Furathiocarb (ﬁnal concentrations in the incubation mixture were 1, 5, 25, 50, and 100 µM) was added to the incubation mixture. The N-in-one was used earlier for the study of pesticide interactions and the details of the incubations with furathiocarb are described in Supplementary materials.
(§2) The kinetic parameters Vmax and Km were calculated by nonlinear regression. Bivariate linear Pearson’s correlation coefﬁcients (r2) were calculated between metabolite formations and model activities in the livers. GraphPad Prism 9 Software (Inc., San Diego, CA) Prism 9.0.0 (San Diego, CA) was used for kinetic parameters and correlation coefﬁcients analysis. The IC50 values were determined by linear regression analysis using OriginPro 2020 (MicroCal Software, Inc., Northampton, MA.
(§3) N-in-one assay was performed to investigate human CYP-furathiocarb inhibitory interactions. Furathiocarb (ﬁnal concentrations in the incubation mixture were 1, 5, 25, 50, and 100 µM) was added to the incubation mixture.
(§4) The N-in-one assay, analytical method and authentic standards have been described previously (Abass and Pelkonen 2013; Tolonen et al. 2007; Turpeinen et al. 2005). […]

CYP2C19 = target: T2, CYP2C19 (Homo sapiens, UniProt P33261); test: biochemical; type: in vitro ADME
T2 construct: from tissue; host or cells: pooled human liver microsomes (n = 10 donors)
Method: as §1, §2, §3, §4

[1] = 7 cases of acute fatalities, cited from earlier work
CYP2B6 = target: T3, CYP2B6 (Homo sapiens, UniProt P20813); test: in vitro; type: in vitro ADME; set-up: purchased BD Biosciences Discovery Labware (Bedford, MA); host or cells: baculovirus-infected insect cells; details: pH 7.4, Carbofuran metabolic pathway, rCYP2B6
T3 sequence (P20813 1-491): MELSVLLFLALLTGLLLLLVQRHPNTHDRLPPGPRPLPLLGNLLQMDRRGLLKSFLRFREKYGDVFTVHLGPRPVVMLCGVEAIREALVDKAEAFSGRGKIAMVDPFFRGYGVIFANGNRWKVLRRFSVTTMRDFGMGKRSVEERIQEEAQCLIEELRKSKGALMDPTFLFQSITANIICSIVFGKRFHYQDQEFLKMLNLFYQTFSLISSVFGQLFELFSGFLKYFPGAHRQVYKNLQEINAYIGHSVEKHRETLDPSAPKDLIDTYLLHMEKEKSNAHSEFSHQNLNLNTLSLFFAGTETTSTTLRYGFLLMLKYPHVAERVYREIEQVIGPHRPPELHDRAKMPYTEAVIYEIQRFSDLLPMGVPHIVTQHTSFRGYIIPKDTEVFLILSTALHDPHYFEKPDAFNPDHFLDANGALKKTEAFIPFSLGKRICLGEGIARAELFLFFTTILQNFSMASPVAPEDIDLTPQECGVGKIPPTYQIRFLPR
Method: Furathiocarb was incubated with recombinant CYPs (rCYP). The incubation mixture contained rCYPs (50 pmol CYP per ml), 100 µM furathiocarb, and 1 mM NADPH in 200 µl 0.1 M phosphate buffer (pH 7.4). Incubation procedures and chromatographic separation are presented in Supplementary materials.
Enzyme kinetic parameters of both the microsomal samples and rCYP enzymes were measured. The incubation mixture contained furathiocarb (2.5, 10, 25, 50, 150 and 300 µM). Incubation times were 20 and 30 min for microsomal samples and rCYPs, respectively. Otherwise incubation mixtures and methods were the same as in metabolite identification. The rate of sum of furathiocarb metabolite formation was linear at least up to 0.15 mg protein/ml and 30 min incubation time in the standard experimental conditions.
To measure the main furathiocarb metabolites of recombinantly expressed CYP enzymes (rCYPs), the standard incubation mixture (200 µl) contained 0.1 M phosphate buffer (pH 7.4), 1 mM NADPH, 100 µM […], and rCYPs (50 pmol CYP per ml). Incubations were carried out according to the manufacturer’s instructions. Shortly, the reaction was started by adding recombinant enzymes to the preincubated eaction mixture (2 min at +37 ◦C), mixed gently and incubated for 30 min at +37 ◦C in an incubator block without agitation. […]

T2 sequence (P33261 whole entry): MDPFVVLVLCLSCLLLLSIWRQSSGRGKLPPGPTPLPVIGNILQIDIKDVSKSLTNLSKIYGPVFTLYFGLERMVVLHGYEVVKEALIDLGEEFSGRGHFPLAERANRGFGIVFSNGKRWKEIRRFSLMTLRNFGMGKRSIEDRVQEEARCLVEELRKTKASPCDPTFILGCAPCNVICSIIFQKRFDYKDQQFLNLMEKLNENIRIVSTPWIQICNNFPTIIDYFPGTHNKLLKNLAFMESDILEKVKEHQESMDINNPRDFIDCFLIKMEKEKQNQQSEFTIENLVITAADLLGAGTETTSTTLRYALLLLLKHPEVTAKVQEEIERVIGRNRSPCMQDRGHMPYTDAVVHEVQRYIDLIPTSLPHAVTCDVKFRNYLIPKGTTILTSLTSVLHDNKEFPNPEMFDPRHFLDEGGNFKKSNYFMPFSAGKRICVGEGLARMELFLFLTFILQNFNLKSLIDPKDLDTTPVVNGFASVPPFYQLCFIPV

CCCCOC(=O)N(C)SN(C)C(=O)Oc1cccc2c1OC(C)(C)C2 [furathiocarb, Furathiocarb]
IC50 (CYP1A2): 16.5 to 18.5 µM
IC50 (CYP2C19): 16.5 to 18.5 µM
Concentrations in the blood (average) ([1]; n = 7): 3600 ng/mL
Concentrations in the blood (range) [1]: 100 to 21600 ng/mL
Km at 30 min (CYP2B6): 9.7 ± 3.9 µM
